According to patent US11447445B2, “Diabetes and metabolic syndrome treatment with a novel dual modulator of soluble epoxide hydrolase and peroxisome proliferator-activated receptors” (priority 2015, dated 2022):
Converted amounts (≈) assume the structure as drawn.

Key:
recombinant human sEH = biological target: T1, recombinant human sEH (Homo sapiens, UniProt P34913); assay: biochemical; settings: for inhibition at 10 µM: read-out: sEH inhibition @10 μM (converted); for IC50: read-out: IC50 sEH (converted)
T1 sequence (P34913 1-555): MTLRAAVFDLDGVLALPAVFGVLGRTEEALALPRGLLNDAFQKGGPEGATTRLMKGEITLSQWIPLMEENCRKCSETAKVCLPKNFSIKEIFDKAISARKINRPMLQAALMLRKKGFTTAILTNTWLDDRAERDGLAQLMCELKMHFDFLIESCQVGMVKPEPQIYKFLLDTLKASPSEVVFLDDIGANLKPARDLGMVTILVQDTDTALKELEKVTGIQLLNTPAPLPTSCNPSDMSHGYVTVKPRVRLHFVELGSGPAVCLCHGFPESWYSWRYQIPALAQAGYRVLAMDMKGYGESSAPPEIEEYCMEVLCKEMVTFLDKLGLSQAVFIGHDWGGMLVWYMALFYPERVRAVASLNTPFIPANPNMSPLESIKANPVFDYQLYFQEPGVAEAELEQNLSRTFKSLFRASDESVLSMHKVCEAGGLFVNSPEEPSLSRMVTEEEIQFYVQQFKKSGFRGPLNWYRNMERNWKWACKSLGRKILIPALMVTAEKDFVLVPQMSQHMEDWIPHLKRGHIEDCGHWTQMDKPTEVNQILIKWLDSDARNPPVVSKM

PPARα = biological target: T2, PPARα (Homo sapiens, UniProt Q07869); type: cell-based; settings: i.a. = inactive
T2 construct: expressed in transfected cells; host or cells: COS-7
T2 sequence (Q07869 239-466): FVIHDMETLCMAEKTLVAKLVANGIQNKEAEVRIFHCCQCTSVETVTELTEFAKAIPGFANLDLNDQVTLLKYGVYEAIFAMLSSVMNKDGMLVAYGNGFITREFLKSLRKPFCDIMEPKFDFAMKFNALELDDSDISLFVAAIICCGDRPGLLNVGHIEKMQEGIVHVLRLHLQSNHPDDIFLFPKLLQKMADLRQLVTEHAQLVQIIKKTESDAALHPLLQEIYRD
Protocol: (§1) COS-7 cells (PPAR) were grown in DMEM high glucose, supplemented with 10% fetal calf serum (FCS), 1% sodium pyruvate (SP) and 1% penicillin/streptomycin (PS) at 37° C. and 5% CO2. Used plasmids for PPAR transactivation assay are shown under supporting informations.
(§2) The day before transfection, COS-7 cells were seeded in 96-well plates with a density of 30,000 cells per well. Transient transfection was carried out using Lipofectamine LTX reagent (Invitrogen, Carlsbad, Calif., USA) according to the manufacturer's protocol with pFR-Luc (Stratagene), pRL-SV40 (Promega) and the Ga14-fusion receptor plasmids (pFA-CMV-hPPAR-LBD) of the respective PPAR subtype. 5 h after transfection, medium was changed to DMEM without phenol red and 10% FCS, supplemented with 1% SP, 1% PS and 1% L-glutamine, now additionally containing 0.1% DMSO and the respective test compound or 0.1% DMSO alone as untreated control. Each concentration was tested in triplicate wells and each experiment was repeated independently at least three times. Following overnight incubation with the test compounds, cells were assayed for luciferase activity using Dual-Glo™ Luciferase Assay System (Promega) according to the manufacturer's protocol. Luminescence was measured with an Infinite m200 luminometer (Tecan Deutschland GmbH). Each concentration of the compounds was tested in triplicate wells. Normalization for transfection efficacy and cell growth was done by division of the firefly luciferase data by renilla luciferase data resulting in relative light units. Activation factors were obtained by dividing by DMSO control. […] All compounds were evaluated by comparison of the achieved maximum effect to that of the reference compound (pioglitazone for PPARγ, GW7647 for PPARa, and L165041 for PPARS each with 1 μM). Data are expressed as mean±SE; n≥3.
(§3) The Gal4-fusion receptor plasmids pFA-CMV-PPARa-LBD, pFA-CMV-PPARS-LBD and pFA-CMV-PPARγ-LBD containing the hinge region and ligand binding domain (LBD) for each of the PPAR subtypes, respectively, were constructed by integrating cDNA fragments obtained from PCR amplification of human monocytes into the SmaI/XbaI cleavage site of the pFA-CMV vector (Stratagene, La Jolla, Calif., USA) and have already been published. […] Frame and sequence of the fusion receptors were verified by sequencing. pFR-Luc (Stratagene) was used as reporter plasmid and pRL-SV40 (Promega) for normalization of transfection efficacy and cell growth.

PPARδ = biological target: T3, PPARδ (Homo sapiens, UniProt Q03181); assay: PPAR transactivation assay in COS-7 cells (Gal4-hPPAR-LBD, luciferase); type: cell-based; settings: i.a. = inactive
T3 construct: expressed in transfected cells; host or cells: COS-7
T3 sequence (Q03181 211-439): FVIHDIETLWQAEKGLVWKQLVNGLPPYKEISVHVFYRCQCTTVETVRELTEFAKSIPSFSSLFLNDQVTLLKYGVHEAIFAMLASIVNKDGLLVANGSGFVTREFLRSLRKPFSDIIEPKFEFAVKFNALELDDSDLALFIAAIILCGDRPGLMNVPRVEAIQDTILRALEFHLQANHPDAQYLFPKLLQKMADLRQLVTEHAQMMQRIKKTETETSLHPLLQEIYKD
Protocol: as §1, §2, §3

[1] = Water solubility approximation; type: physicochemical; settings: PBS with 0.01% Polysorbate 20, aqueous with cosolvent or surfactant or cyclodextrin, kinetic from dmso stock; PBS pH 7.4, 0.01% Polysorbate 20, 1% DMSO; precipitation at 650 nm; read-out: w.s. (water solubility)
Protocol: PBS at pH 7.4 with 0.01% Polysorbate 20 (Tween) was combined with 1% of a DMSO solution of the inquired compound in a 96-well transparent flat bottom microtiter plate. Precipitation of the compound was measured at 650 nm with a Tecan Infinite 200 (Tecan Group Ltd, Mannedorf, Switzerland).

PPARγ = biological target: T4, PPARγ (Homo sapiens, UniProt P37231); assay: cell-based; type: cell-based; settings: i.a. = inactive
T4 construct: expressed in transfected cells; host or cells: COS-7
T4 sequence (P37231 238-503): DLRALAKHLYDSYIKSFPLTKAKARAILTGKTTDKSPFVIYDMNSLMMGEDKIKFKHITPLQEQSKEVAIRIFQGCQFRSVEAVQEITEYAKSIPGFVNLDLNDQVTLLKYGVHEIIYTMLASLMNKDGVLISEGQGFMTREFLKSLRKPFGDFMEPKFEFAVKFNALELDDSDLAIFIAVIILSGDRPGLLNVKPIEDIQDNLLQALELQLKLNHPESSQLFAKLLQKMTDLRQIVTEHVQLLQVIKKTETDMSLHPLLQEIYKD
Protocol: as §1, §2, §3

| Structure (SMILES) | inhibition at 10 µM (recombinant human sEH) | EC50 PPARα (PPARα) | EC50 PPARδ (PPARδ) | solubility [1] | IC50 (recombinant human sEH) | EC50 PPARγ (PPARγ) |
| --- | --- | --- | --- | --- | --- | --- |
| CCC(Cc1ccc(C(=O)NCc2ccccc2OC(F)(F)F)cc1)C(=O)O (stereo not shown) [Compound 6c, 2-Ethyl 3-[4-(N-((2-trifluoromethoxy)benzyl)benzamide)]propionic acid] | 23% | n.t. i.a. i.a. n.t. | n.t. i.a. i.a. n.t. | 500 µM (≈ 198 µg/mL) | – | – |
| CCC(Cc1ccc(C(=O)NCc2ccc(OC)cc2)cc1)C(=O)O (stereo not shown) [Compound 10c, 2-Ethyl 3-[4-(N-((4-methoxy)benzyl)benzamide)]propionic acid] | 34% | n.t. i.a. i.a. n.t. | n.t. i.a. i.a. n.t. | 500 µM (≈ 171 µg/mL) | – | – |
| CCOC(=O)/C=C/c1ccc(C(=O)NCc2ccccc2C(F)(F)F)cc1 [Compound 16a, Ethyl (E)-4-[N-((2-trifluoromethyl)benzyl)benzamide]-cinnamate] | – | i.a. | i.a. | 2.5 µM (≈ 0.943 µg/mL) | 130 ± 5 nM | – |
| CCOC(=O)CCc1ccc(C(=O)NCc2ccccc2C(F)(F)F)cc1 [Compound 16b, Ethyl 3-[4-(N-((2-trifluoromethyl)benzyl)benzamide)]propanoate] | – | i.a. | i.a. | 5 µM (≈ 1.9 µg/mL) | 110 ± 3 nM | – |
| O=C(O)CCc1ccc(C(=O)NCc2ccccc2C(F)(F)F)cc1 [Compound 16c, 3-[4-(N-((2-trifluoromethyl)benzyl)benzamide)]propionic acid] | – | i.a. | i.a. | 500 µM (≈ 176 µg/mL) | 9000 ± 1700 nM | – |
| O=C(O)/C=C/c1ccc(C(=O)NCc2ccccc2C(F)(F)F)cc1 [Compound 16d, (E)-4-[N-((2-Trifluoromethyl)benzyl)benzamide]-cinnamic acid] | – | i.a. | i.a. | 10 µM (≈ 3.49 µg/mL) | 800 ± 50 nM | – |
| CCOC(=O)C(C)Cc1ccc(C(=O)NCc2ccccc2C(F)(F)F)cc1 (stereo not shown) [Compound 17b, Ethyl 2-methyl 3-[4-(N-((2-trifluoromethyl)benzyl)benzamide)]propanoate] | – | i.a. | i.a. | 10 µM (≈ 3.93 µg/mL) | 250 ± 40 nM | – |
| CC(Cc1ccc(C(=O)NCc2ccccc2C(F)(F)F)cc1)C(=O)O (stereo not shown) [Compound 17c, 2-Methyl 3-[4-(N-((2-trifluoromethyl)benzyl)benzamide)]propionic acid] | – | i.a. | i.a. | 500 µM (≈ 183 µg/mL) | 8000 ± 1600 nM | – |
| CCCC(Cc1ccc(C(=O)NCc2ccccc2C(F)(F)F)cc1)C(=O)OCC (stereo not shown) [Compound 18b, Ethyl 2-propyl 3-[4-(N-((2-trifluoromethyl)benzyl)benzamide)]propanoate] | – | i.a. | i.a. | 5 µM (≈ 2.11 µg/mL) | 170 ± 40 nM | – |
| CCCC(Cc1ccc(C(=O)NCc2ccccc2C(F)(F)F)cc1)C(=O)O (stereo not shown) [Compound 18c, 2-Propyl 3-[4-(N-((2-trifluoromethyl)benzyl)benzamide)]propionic acid] | – | i.a. | i.a. | 500 µM (≈ 197 µg/mL) | 5000 ± 1300 nM | – |
| CCOC(=O)C(Cc1ccc(C(=O)NCc2ccccc2C(F)(F)F)cc1)c1ccccc1 (stereo not shown) [Compound 19b, Ethyl 2-phenyl 3-[4-(N-((2-trifluoromethyl)benzyl)benzamide)]propanoate] | – | i.a. | i.a. | 5 µM (≈ 2.28 µg/mL) | 120 ± 13 nM | – |
| O=C(NCc1ccccc1C(F)(F)F)c1ccc(CC(C(=O)O)c2ccccc2)cc1 (stereo not shown) [Compound 19c, 2-Phenyl 3-[4-(N-((2-trifluoromethyl)benzyl)benzamide)]propionic acid] | – | i.a. | i.a. | 100 µM (≈ 42.7 µg/mL) | 2500 ± 500 nM | – |
| CON(C)C(=O)/C=C/c1ccc(C(=O)NCc2ccccc2C(F)(F)F)cc1 [Compound 20] | – | i.a. | i.a. | – | 70 ± 20 nM | i.a. |
